Values of other authors as cited in US20140037570A1, “NBPT solution for preparing urease inhibited urea fertilizers prepared from N-alkyl; N, N-alkyl; and N-alkyl-N-alkoxy amino alcohols” (Whitehurst Associates Inc., priority 2012, published 2014).

Conditions: background statement on NBPT

Q: With CCCCNP(N)(N)=S [NBPT, N-(n-butyl)thiophosphoric triamide] as the compound, how does the stability read?
A: thermally unstable
